Test [1] has as its target T1, KRas WT (Homo sapiens, UniProt P01116).
T1 construct: Biotinylated KRas (corresponding to amino acids 1-169, produced at Accelegan Inc.); biotin (biotinylated); purchased Accelegan Inc
Put plainly: KRas binding assay, TR-FRET displacement of Cy5 labelled tracer. Conditions: 60-minute incubation at room temperature, 1% DMSO, pH 7.5. A digest of the protocol: (§1)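 Displacement measured on KRas residues 1-169 (biotinylated, terbium-streptavidin labelled); 1 h, RT; 1% DMSO final; HEPES pH 7.5 / MgCl2 / Tween-20 / DTT. IC50: 4-parameter fit.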
A general note: TR-FRET usually uses a lanthanide donor and a delayed reading to cut background.

Test [2] deals with T2, KRas G12S (Homo sapiens, UniProt P01116, G12S).
T2 construct: Biotinylated KRas (corresponding to amino acids 1-169, produced at Accelegan Inc.); biotin (biotinylated); purchased Accelegan Inc
Described as above. Conditions: 60-minute incubation at room temperature, 1% DMSO, pH 7.5. A digest of the protocol: as §1

Test [3] has as its target T3, KRas G12C (Homo sapiens, UniProt P01116, G12C).
T3 construct: Biotinylated KRas (corresponding to amino acids 1-169, produced at Accelegan Inc.); biotin (biotinylated); purchased Accelegan Inc
The description is as above. The note with it: 60-minute incubation at room temperature, 1% DMSO, pH 7.5. A digest of the protocol:
as §1

Test [4] has as its target T4, KRas-mediated phosphorylation of ERK in A549 cells (Homo sapiens, UniProt P01116, G12S).
T4 construct: pERK HTRF read-out
Kind of test: Inhibition of KRas-mediated phosphorylation of ERK (HTRF), A549 cells. The test is classed as cell-based. Conditions: HTRF pERK, 3 h incubation.

Test [5] deals with T5, KRas-mediated phosphorylation of ERK in MKN1 cells (Homo sapiens, UniProt P01116).
T5 construct: pERK HTRF read-out
Kind of test: Inhibition of KRas-mediated phosphorylation of ERK (HTRF), MKN1 cells. Conditions: MKN1 cells (KRas WT); HTRF pERK; 3 h incubation. The class given is cell-based. On the procedure:
Inhibition of KRas Phosphorylation of ERK (HTRF) by Exemplary Compounds of Formula (Ia) or (Ib)
Cisbio HTRF Advanced pERK Assay Catalog #64AERPEH • Cells: MKN1, PSN1 • Procedure: • 1. Day 1: Seed 6,000 cells/well −25 μl/well in 384-well white solid bottom plate; RPM1_10% FBS. Incubate overnight at 37 °C/5% CO2. • 2.

T4 sequence (P01116 1-188 isoform P01116-2 G12S): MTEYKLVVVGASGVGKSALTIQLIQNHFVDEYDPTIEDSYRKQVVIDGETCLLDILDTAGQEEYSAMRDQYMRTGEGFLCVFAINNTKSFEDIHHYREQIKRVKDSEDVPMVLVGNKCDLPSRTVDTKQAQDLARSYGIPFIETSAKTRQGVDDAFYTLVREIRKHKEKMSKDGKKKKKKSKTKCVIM
T2 sequence (P01116 1-169 isoform P01116-2 G12S): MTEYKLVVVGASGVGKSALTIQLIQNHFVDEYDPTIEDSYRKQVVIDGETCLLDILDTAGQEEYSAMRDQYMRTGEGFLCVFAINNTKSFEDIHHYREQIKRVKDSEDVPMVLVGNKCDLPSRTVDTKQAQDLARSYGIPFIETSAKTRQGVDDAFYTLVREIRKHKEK
T1 sequence (P01116 1-169 isoform P01116-2): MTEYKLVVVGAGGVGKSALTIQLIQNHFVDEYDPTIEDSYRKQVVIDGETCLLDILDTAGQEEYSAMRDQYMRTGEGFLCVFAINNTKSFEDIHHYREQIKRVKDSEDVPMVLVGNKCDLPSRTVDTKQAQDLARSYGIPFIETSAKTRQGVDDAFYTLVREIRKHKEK
T5 sequence (P01116 1-188 isoform P01116-2): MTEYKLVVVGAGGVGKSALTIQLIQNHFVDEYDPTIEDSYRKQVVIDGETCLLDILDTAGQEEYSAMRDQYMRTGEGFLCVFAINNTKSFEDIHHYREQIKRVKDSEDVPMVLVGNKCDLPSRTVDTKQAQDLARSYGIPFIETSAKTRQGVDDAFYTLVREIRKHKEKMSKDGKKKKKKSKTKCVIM
T3 sequence (P01116 1-169 isoform P01116-2 G12C): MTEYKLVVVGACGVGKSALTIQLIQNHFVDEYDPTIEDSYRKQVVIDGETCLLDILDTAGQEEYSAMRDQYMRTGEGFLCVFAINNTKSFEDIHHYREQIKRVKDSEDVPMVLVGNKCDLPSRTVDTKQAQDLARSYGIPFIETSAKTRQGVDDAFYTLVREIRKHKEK

The term IC50 denotes the midpoint of a concentration-inhibition curve. A higher IC50 goes with lower potency. Regarding `Cc1ccn(C(=O)C2CCCCCN(c3nc(OC[C@@]45CCCN4C[C@H](F)C5)nc4c(F)c(-c5ccc(F)c6sc(N)c(C#N)c56)c(Cl)cc34)C2)n1` (stereo partly drawn) [Example 173, 2-amino-4-(6-chloro-8-fluoro-2-(((2R,7aS)-2-fluorotetrahydro-1H-pyrrolizin-7a(5H)-yl)methoxy)-4-(3-(3-methyl-1H-pyrazole-1-carbonyl)azocan-1-yl)quinazolin-7-yl)-7-fluorobenzo[b]thiophene-3-carbonitrile], the IC50 in test [1] is 31 nM; in test [2] it was 27 nM; in test [3] it was 29 nM; in test [4], 772 nM; in test [5], 54 nM.
Regarding `CCc1c(F)ccc2cc(O)cc(-c3c(F)cc4c(N5CCCC(C(=O)n6ccc(C)n6)CC5)nc(OC[C@@]56CCCN5C[C@H](F)C6)nc4c3F)c12` (stereo partly drawn) [Example 174, (1-(7-(8-ethyl-7-fluoro-3-hydroxynaphthalen-1-yl)-6,8-difluoro-2-(((2R,7aS)-2-fluorotetrahydro-1H-pyrrolizin-7a(5H)-yl)methoxy)quinazolin-4-yl)azepan-4-yl)(3-methyl-1H-pyrazol-1-yl)methanone], the IC50 is 1120 nM in test [1]; 182 nM in test [2]; 1120 nM in test [3]; 507 nM in test [4]; 3000 nM in test [5].
Turning to `Cc1ccn(C(=O)[C@@H]2[C@@H]3CCN(c4nc(OC[C@@]56CCCN5C[C@H](F)C6)nc5c(F)c(-c6ccc(F)c7sc(N)c(C#N)c67)c(Cl)cc45)C[C@@H]32)n1` [Example 179, 2-amino-4-(6-chloro-8-fluoro-2-(((2R,7aS)-2-fluorotetrahydro-1H-pyrrolizin-7a(5H)-yl)methoxy)-4-((1S,6R)-7-(3-methyl-1H-pyrazole-1-carbonyl)-3-azabicyclo[4.1.0]heptan-3-yl)quinazolin-7-yl)-7-fluorobenzo[b]thiophene-3-carbonitrile], the IC50 came out at 26 nM in test [1]; 42 nM in test [2]; 64 nM in test [3]; 167 nM in test [4]; 110 nM in test [5].
With `Cc1ccn(C(=O)[C@H]2C[C@H]2CNc2nc(OC[C@@]34CCCN3C[C@H](F)C4)nc3c(F)c(-c4ccc(F)c5sc(N)c(C#N)c45)c(Cl)cc23)n1` [Example 182, 2-amino-4-(6-chloro-8-fluoro-2-(((2R,7aS)-2-fluorotetrahydro-1H-pyrrolizin-7a(5H)-yl)methoxy)-4-((((cis)-2-(3-methyl-1H-pyrazole-1-carbonyl)cyclopropyl)methyl)amino)quinazolin-7-yl)-7-fluorobenzo[b]thiophene-3-carbonitrile], the IC50 in test [1] is 35 nM; in test [2], 38 nM; in test [3] it was 24 nM; in test [4], 179 nM; in test [5] it was 247 nM.
For `Cc1ccn(C(=O)C23CCC(CN(c4nc(OC[C@@]56CCCN5C[C@H](F)C6)nc5c(F)c(-c6ccc(F)c7sc(N)c(C#N)c67)c(Cl)cc45)C2)C3)n1` (stereo partly drawn) [Example 183, 2-amino-4-(6-chloro-8-fluoro-2-(((2R,7aS)-2-fluorotetrahydro-1H-pyrrolizin-7a(5H)-yl)methoxy)-4-(1-(3-methyl-1H-pyrazole-1-carbonyl)-3-azabicyclo[3.2.1]octan-3-yl)quinazolin-7-yl)-7-fluorobenzo[b]thiophene-3-carbonitrile] the same measures were 5 nM, 3 nM, 4 nM, 143 nM and 192 nM.

Source of the values: patent publication US20260356856A1, “KRAS G12S AND G12C INHIBITORS” (MIRATI THERAPEUTICS, INC., priority 2023, published 2026).
